Marks after values point to notes of the source that are not given here.
conditions: pH 2.7

| SMILES | Log P |
| --- | --- |
| CCOC(=O)C(C#N)=C(Nc1ccc(Cl)cc1)c1sccc1C(F)(F)F [Compound 510] | 4.14^[a] |
| COC(=O)C(C#N)=C(NC(C)CN(C)C)c1sc(C)nc1C(F)(F)F (centres unmarked) [Compound 630] | 1.17^[a] |
| COC(=O)C(C#N)=C(Nc1ccc(OC(F)F)cc1)c1sc(C)nc1C(F)(F)F [Compound 515] | 3.31^[a] |
| COC(=O)C(C#N)=C(NC1CCCC(C(F)(F)F)C1)c1cccnc1Cl (centres unmarked) [Compound 1069] | 3.09^[a] |
| CCOC(=O)C(C#N)=C(Nc1ccccc1SC)c1ccsc1I [Compound 436] | 3.94^[a] |
| CCOC(=O)C(C#N)=C(NC(C)c1ncccc1SC)c1cccnc1Cl (centres unmarked) [Compound 1448] | 3.1^[a] |
| CCOC(=O)C(C#N)=C(NC(C)COC)c1scnc1Cl (centres unmarked) [Compound 1467] | 2.61^[a] |
| CCOC(=O)C(C#N)=C(Nc1ccccc1Cl)c1cccnc1Cl [Compound 1263] | 3.35^[a] |
| CCOC(=O)C(C#N)=C(NC(C)c1cn2ccsc2n1)c1cccnc1Cl (centres unmarked) [Compound 1529] | 2.35^[a] |
| CCOC(=O)C(C#N)=C(NC(C)COc1c(C)cccc1C)c1sccc1Br (racemic) [Compound 670] | 4.86^[a] |
| COC(=O)C(C#N)=C(NC(C)(C)c1ccc(F)cc1)c1cccnc1Cl [Compound 399] | 2.98^[a] |
| CCOC(=O)C(C#N)=C(NC(C)C(C)C)c1ccnc(Br)c1F (centres unmarked) [Compound 1315] | 3.87^[a] |
| COC(=O)C(C#N)=C(NCc1ccccc1SC)c1sc(C)nc1C(F)(F)F [Compound 466] | 3.55^[a] |
| COC(=O)/C(C#N)=C(\NCC(C)N)c1sc(C)nc1C(F)(F)F (centres unmarked) [Compound 631] | 0.94^[a] |
| CCOC(=O)C(C#N)=C(NC(C#N)c1ccc(Cl)cc1Cl)c1cccnc1Cl (racemic) [Compound 1267] | 3.83^[a] |
| CC(C)C(C)NC(=C(C#N)C(=O)N1CCSC1)c1cccnc1Cl (centres unmarked) [Compound 1618] | 3.1^[a] |
| COC(=O)C(C#N)=C(NC(C)c1cc(Cl)cc(Cl)c1)c1cccnc1Cl (centres unmarked) [Compound 388] | 3.68^[a] |
| CCOC(=O)C(C#N)=C(NC(C)Cc1ccccn1)c1cccnc1Cl (mixture of isomers) [Compound 295] | 1.82^[a] |
| CCOC(=O)C(C#N)=C(NC(c1cc2ccccc2s1)C(F)(F)F)c1cn(C)nc1C(F)F (racemic) [Compound 48] | 4.1^[a] |
| COC(=O)C(C#N)=C(NC(C)c1ccccn1)c1cn(C)nc1C(F)F (racemic) [Compound 59] | 2.05^[a] |
| CCOC(=O)C(C#N)=C(NC(C)C(C)C)c1nc(Cl)ccc1Cl (centres unmarked) [Compound 966] | 4.06^[a] |
| CCOC(=O)C(C#N)=C(NC(C)CC(C)C)c1cn(C)nc1C(F)F (racemic) [Compound 780] | 3.46^[a] |
| CCOC(=O)C(C#N)=C(Nc1ccc(C(C)C)cc1)c1cn(C)nc1C(F)F [Compound 497] | 3.76^[a] |
| CCOC(=O)C(C#N)=C(NC(C)c1ccccn1)c1ccsc1Br (centres unmarked) [Compound 116] | 3.1^[a] |

| SMILES | Log P |
| --- | --- |
| CCOC(=O)C(C#N)=C(NC(C)c1nccs1)c1cc(Cl)sc1Cl (centres unmarked) [Compound 1578] | 3.58^[a] |
| CCOC(=O)C(C#N)=C(NC(C)c1nc(C)c(C)s1)c1sccc1C(F)(F)F (centres unmarked) [Compound 97] | 3.92^[a] |
| C=CCOC(=O)C(C#N)=C(NC(C)c1ccccn1)c1cccnc1Cl (centres unmarked) [Compound 1572] | 2.66^[a] |
| CCOC(=O)C(C#N)=C(NC(CC)c1cccc(Cl)c1)c1cn(C)nc1C(F)F (racemic) [Compound 558] | 3.87^[a] |
| CC(C)C(C)NC(=C(C#N)C(=O)O)c1sccc1Br (centres unmarked) [Compound 964] | 2.74^[a] |
| CCOC(=O)C(C#N)=C(NC(C)c1cccc2ccccc12)c1cnc(Cl)cc1Cl (centres unmarked) [Compound 3] | 4.4^[a] |
| CCOC(=O)C(C#N)=C(NC(C(=O)NC)c1ccccc1)c1cn(C)nc1C(F)F (centres unmarked) [Compound 1137] | 2.27^[a] |
| CCOC(=O)C(C#N)=C(NC[Si](C)(C)C)c1cn(C)nc1C(F)F [Compound 1126] | 3.35^[a] |
| CCOC(=O)C(C#N)=C(Nc1ccccc1SC)c1ncc(C(F)(F)F)cc1Cl [Compound 350] | 4.26^[a] |
| CCOC(=O)C(C#N)=C(NCc1nccs1)c1cn(C)nc1C(F)(F)F [Compound 138] | 2.43^[a] |
| COC(=O)C(C#N)=C(NCC#N)c1sc(C)nc1C(F)(F)F [Compound 787] | 2.01^[a] |
| CC(C)C(C)NC(=C(C#N)C(=O)NC1CCC1C)c1cccnc1Cl (centres unmarked) [Compound 1511] | 4.01^[a] |
| CCOC(=O)C(C#N)=C(Nc1ccc(C(C)C)cc1)c1sccc1C(F)(F)F [Compound 481] | 4.75^[a] |
| CCOC(=O)C(C#N)=C(NC(C)C(=O)NC)c1ccnc(Cl)c1F (centres unmarked) [Compound 1324] | 2.15^[a] |
| CCOC(=O)C(C#N)=C(NC(C)C(N)=O)c1cn(C)nc1C(F)F (racemic) [Compound 590] | 1.5^[a] |
| COC(=O)C(C#N)=C(NC(C)(C)C#Cc1ccc(C)cc1)c1sc(C)nc1C(F)(F)F [Compound 1095] | 4.51^[a] |
| CCOC(=O)C(C#N)=C(NC(C)c1ccccn1)c1cn(C)nc1I (racemic) [Compound 1248] | 2.37^[a] |
| CCOC(=O)C(C#N)=C(NC(C)COC)c1cnn(C)c1Cl (centres unmarked) [Compound 1486] | 2.42^[a] |
| CCOC(=O)C(C#N)=C(NC(C)c1ncc(C)s1)c1sc(C)nc1C(F)(F)F (centres unmarked) [Compound 196] | 3.46^[a] |
| CCONC(=O)C(C#N)=C(NC(C)c1nccs1)c1cccnc1Cl (centres unmarked) [Compound 1598] | 1.8^[a] |
| CCCCCCC(C)NC(=C(C#N)C(=O)OCC)c1cn(C)nc1C(F)F (racemic) [Compound 817] | 4.36^[a] |
| CCOC(=O)C(C#N)=C(NC(c1cc2ccccc2s1)C(F)(F)F)c1c(C)nn(C)c1Cl (racemic) [Compound 137] | 4.46^[a] |
| CCNC(=O)C(C#N)=C(NC(C)C(C)C)c1cccnc1C#N (centres unmarked) [Compound 1199] | 2.64^[a] |
| CCOC(=O)C(C#N)=C(NC(C)CC)c1nc(SC)ncc1Br (racemic) [Compound 841] | 3.89^[a] |

| SMILES | Log P |
| --- | --- |
| COC(=O)C(C#N)=C(NC(C)Cc1c[nH]c2ccccc12)c1cn(C)nc1C(F)F (racemic) [Compound 57] | 3^[a] |
| CCOC(=O)C(C#N)=C(NC(C)C(C)C)c1cn(C)nc1C (centres unmarked) [Compound 1203] | 2.8^[a] |
| COC(=O)C(C#N)=C(NC(C)c1cccs1)c1sc(C)nc1C(F)(F)F (centres unmarked) [Compound 210] | 3.46^[a] |
| CCOC(=O)C(C#N)=C(NC(C)C(=O)NC)c1conc1C (centres unmarked) [Compound 629] | 1.57^[a] |
| CCOC(=O)C(C#N)=C(NCc1ccccn1)c1c(C)nn(C)c1F [Compound 39] | 1.91^[a] |
| COC(=O)C(C#N)=C(NC1COC1)c1cccnc1Cl [Compound 120] | 1.35^[a] |
| COC(=O)C(C#N)=C(NC(C)CN)c1cn(C)nc1C(F)F (racemic) [Compound 591] | 0.58^[a] |
| CCOC(=O)C(C#N)=C(NC1CCCC1OCC)c1cccnc1Cl (centres unmarked) [Compound 1373] | 3.44^[a] |
| C#CC(C)(C)NC(=C(C#N)C(=O)OCC)c1sccc1Br [Compound 1027] | 3.42^[a] |
| CC(NC(=C(C#N)C(=O)N1CCCO1)c1cccnc1Cl)c1nccs1 (centres unmarked) [Compound 1599] | 1.9^[a] |
| CCOC(=O)C(C#N)=C(NC(C)c1nccs1)c1cnn(C)c1C(F)F (centres unmarked) [Compound 1302] | 2.46^[a] |
| CCOC(=O)C(C#N)=C(NCc1nccs1)c1nc(Cl)ccc1Cl [Compound 226] | 2.6^[a] |
| CCOC(=O)C(C#N)=C(NCc1nccs1)c1ccsc1I [Compound 161] | 2.68^[a] |
| CCOC(=O)C(C#N)=C(NC(C)CF)c1cn(C)nc1C(F)(F)F (centres unmarked) [Compound 751] | 2.72^[a] |
| CCOC(=O)C(C#N)=C(Nc1ccccc1SC)c1cn(C)cc1C(F)(F)F [Compound 548] | 3.73^[a] |
| CCOC(=O)C(C#N)=C(NC(C)c1cc(C(F)(F)F)c(Cl)cn1)c1cccnc1Cl (centres unmarked) [Compound 1638] | 3.9^[a] |
| C#CCNC(=O)C(C#N)=C(NC(C)c1ccccn1)c1cn(C)nc1C(F)F (racemic) [Compound 1407] | 1.89^[a] |
| CCOC(=O)C(C#N)=C(Nc1ccc(C#N)cc1)c1cn(C)nc1C(F)F [Compound 1217] | 2.64^[a] |
| CC#CC(C)NC(=C(C#N)C(=O)OCC)c1ccnc(Cl)c1F (centres unmarked) [Compound 1325] | 3.39^[a] |
| CCCC(CC)NC(=C(C#N)C(=O)OCC)c1cn(C)nc1C(F)F (centres unmarked) [Compound 1343] | 3.51^[a] |
| CSCCNC(=O)C(C#N)=C(NC(C)C(C)C)c1cccnc1Cl (centres unmarked) [Compound 1510] | 3.29^[a] |
| CCOC(=O)C(C#N)=C(NC(C)c1ccccn1)c1sccc1Cl (racemic) [Compound 160] | 3.05^[a] |
| CCOC(=O)C(C#N)=C(NC1CC1C)c1cn(C)nc1C(F)F (centres unmarked) [Compound 1130] | 2.68^[a] |

same assay, conditions: pH 7.5

| SMILES | Log P |
| --- | --- |
| CC(NC(=C(C#N)C(=O)OCC(F)(F)F)c1cccnc1Cl)c1nccs1 (centres unmarked) [Compound 30] | 2.67 |
| CCOC(=O)C(C#N)=C(NC(C)COS(C)(=O)=O)c1cccnc1Cl (centres unmarked) [Compound 1107] | 2.17 |
| CCOC(=O)C(C#N)=C(NC1CCOC1=O)c1cccnc1Cl (racemic) [Compound 231] | 1.77 |

Reference: patent US8476197B2, “Aminopropenoates as fungicides” (priority 2009, dated 2013)
